Assay results taken from US20250352588A1, “EFFECT OF A PROBIOTIC COMPOSITION ON VAGINAL LACTOBACILLUS SPECIES” (INTERNATIONAL N&H DENMARK APS, priority 2021, published 2025).

Tests used:
[1] = system: Lactobacillus crispatus 13331; assay: Growth experiments with probiotic supernatant and biogenic amines (OD600, 44 h); assay type: cell-based; settings: highest physiological concentration (cadaverine 4990 μM, putrescine 3179 μM); putrescine effect from 0.5 h to end of experiment
Protocol: The growth experiment was performed as described above but with some modifications. The Lactobacillus crispatus strain was cultured in SVF media (control), and in the SVF media containing one of the biogenic amines, and in the SVF media containing one of the biogenic amines and probiotic supernatant. The effect of all five biogenic amines was investigated independently on the pure culture of Lactobacillus crispatus 13331. Each test condition was investigated in triplicates in the honey-comb plate. […] The growth study was performed in SVF pH 4.5 using Bioscreen© C system measuring the optical density at 600 nm every 30 min for 44 h at 37° C. […] Growth experiments were performed in three independent biological replicates.

L. crispatus strains = settings: Borgogna et al., 2021; cited from earlier work

Row | SMILES | growth in the presence of biogenic amine alone vs strain alone (control) [1] | effect on growth of L. crispatus strains (L. crispatus strains)
1 | NCCCCN [putrescine] | significant reduction in the growth | negatively affect the growth
2 | NCCCCCN [cadaverine] | no statistically significant difference in growth | –
